{
  "source": "ChEMBL document CHEMBL5376009",
  "about": "(RSC Med Chem, 2024)",
  "key": {"[1]": {"tested_on": "Influenza A virus", "test": "Antiviral activity against influenza A virus A/WSN/1933 (H1N1) infected in MDCK cells assessed as reduction in cytopathic effect by fluorescence based analysis", "assay_type": "functional, organism-based"}, "[2]": {"test": "Cytotoxicity against MDCK cells assessed as reduction in cell viability measured after 72 hrs by fluorescence based assay", "assay_type": "toxicity, Canis lupus familiaris", "settings": "dog"}, "[3]": {"tested_on": "Influenza A virus", "test": "Antiviral activity against Influenza A virus A (H1N1)", "assay_type": "functional, organism-based"}, "[4]": {"test": "Cytotoxicity against MDCK cells", "assay_type": "toxicity, cell-based, Canis lupus familiaris", "settings": "dog"}, "[5]": {"target": "Neuraminidase (Influenza A virus, UniProt B4URF0)", "sequence (B4URF0 whole entry)": "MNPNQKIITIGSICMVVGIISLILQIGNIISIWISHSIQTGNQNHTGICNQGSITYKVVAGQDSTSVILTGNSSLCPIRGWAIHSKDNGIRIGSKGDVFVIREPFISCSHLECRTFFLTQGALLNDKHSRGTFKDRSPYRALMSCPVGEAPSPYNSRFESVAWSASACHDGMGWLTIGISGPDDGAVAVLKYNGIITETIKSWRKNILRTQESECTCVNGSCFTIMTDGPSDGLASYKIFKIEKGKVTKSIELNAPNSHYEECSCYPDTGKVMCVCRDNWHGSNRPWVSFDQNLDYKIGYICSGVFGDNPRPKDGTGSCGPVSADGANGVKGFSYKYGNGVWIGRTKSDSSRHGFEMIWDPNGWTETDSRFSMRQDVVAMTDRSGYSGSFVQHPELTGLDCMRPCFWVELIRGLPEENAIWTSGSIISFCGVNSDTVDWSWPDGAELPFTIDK", "test": "Inhibition of influenza A virus neuraminidase"}, "[6]": {"tested_on": "Influenza A virus", "test": "Antiviral activity against influenza A virus A/California/07/2009 (H1N1) infected in MDCK cells assessed as reduction in cytopathic effect by DAPI staining based analysis", "assay_type": "functional, organism-based"}, "[7]": {"tested_on": "Influenza A virus", "test": "Antiviral activity against influenza A virus A/Brisbane/59/2009 (H1N1) infected in MDCK cells assessed as reduction in cytopathic effect by DAPI staining based analysis", "assay_type": "functional, organism-based"}, "[8]": {"tested_on": "Influenza A virus", "test": "Antiviral activity against influenza A virus A/Udorn/1972 (H3N2) infected in MDCK cells assessed as reduction in cytopathic effect by DAPI staining based analysis", "assay_type": "functional, organism-based"}, "[9]": {"tested_on": "Influenza A virus", "test": "Antiviral activity against influenza A virus H5N1 (RG14) infected in MDCK cells assessed as reduction in cytopathic effect by DAPI staining based analysis", "assay_type": "functional, organism-based"}, "[10]": {"test": "Cytotoxicity against HEK293T cells assessed as reduction in cell viability measured after 48 hrs by Cell-Titer Glo assay", "assay_type": "toxicity, cell-based, HEK-293T", "settings": "human"}, "[11]": {"test": "Cytotoxicity against HEK293T cells incubated for 48 hrs by Cell Titer-Glo assay", "assay_type": "toxicity, cell-based, HEK-293T", "settings": "human"}, "[12]": {"tested_on": "Influenza A virus", "test": "Antiviral activity against influenza A virus A/California/07/2009 (H1N1) infected in MDCK cells assessed as reduction in cytopathic effect by fluorescence based analysis", "assay_type": "functional, organism-based"}, "[13]": {"tested_on": "Influenza A virus", "test": "Antiviral activity against influenza A virus A/Brisbane/59/2009 (H1N1) infected in MDCK cells assessed as reduction in cytopathic effect by fluorescence based analysis", "assay_type": "functional, organism-based"}, "[14]": {"tested_on": "Influenza A virus", "test": "Antiviral activity against influenza A virus A/Udorn/1972 (H3N2) infected in MDCK cells assessed as reduction in cytopathic effect by fluorescence based analysis", "assay_type": "functional, organism-based"}, "[15]": {"tested_on": "Influenza A virus", "test": "Antiviral activity against influenza A virus H5N1 (RG14) infected in MDCK cells assessed as reduction in cytopathic effect by fluorescence based analysis", "assay_type": "functional, organism-based"}, "[16]": {"tested_on": "Influenza A virus", "test": "Antiviral activity against Influenza A virus A/California/7/2009 (H1N1) infected in MDCK cells measured after 24 hrs post infection", "assay_type": "functional, organism-based"}, "[17]": {"tested_on": "Influenza A virus", "test": "Antiviral activity against Influenza A virus A/Perth/16/2009 (H3N2) infected in MDCK cells measured after 24 hrs post infection", "assay_type": "functional, organism-based"}, "[18]": {"tested_on": "Influenza B virus", "test": "Antiviral activity against influenza B virus B/Florida/04/2006 infected in MDCK cells measured after 24 hrs post infection", "assay_type": "functional, organism-based", "settings": "B/Florida/04/2006, MDCK"}, "[19]": {"test": "Cytotoxicity against MDCK cell incubated for 72 hrs by EZ-Cytox cell viability assay", "assay_type": "toxicity, cell-based, Canis lupus familiaris", "settings": "dog, MDCK cells"}, "[20]": {"tested_on": "Influenza A virus", "test": "Antiviral activity against influenza A virus A/Anhui/1/2005 (H5N1) infected in MDCK cells assessed as reduction in cytopathic effect incubated for 72 hrs by CPE assay", "assay_type": "functional, organism-based"}, "[21]": {"test": "Cytotoxicity against MDCK cells assessed as reduction in cell viability measured after 72 hrs by CCK8 assay", "assay_type": "toxicity, cell-based, Canis lupus familiaris", "settings": "dog"}, "[22]": {"tested_on": "Influenza A virus", "test": "Antiviral activity against influenza A virus H1N1,A/WSN/1933 infected in MDCK cells assessed as reduction in plaque formation incubated for 72 hrs by crystal violet staining based analysis", "assay_type": "functional, organism-based", "settings": "H1N1,A/WSN/1933, MDCK"}, "[23]": {"tested_on": "Influenza A virus", "test": "Antiviral activity against influenza A virus H5N1,A/Vietnam/1194/2004 infected in MDCK cells assessed as reduction in plaque formation incubated for 72 hrs by crystal violet staining based analysis", "assay_type": "functional, organism-based", "settings": "H5N1,A/Vietnam/1194/2004, MDCK"}, "[24]": {"test": "Cytotoxicity against MDCK cells assessed as reduction in cell viability measured after 72 hrs by MTT assay", "assay_type": "toxicity, cell-based, Canis lupus familiaris", "settings": "dog"}, "[25]": {"test": "Cytotoxicity against MDCK cells incubated for 72 hrs by CCK-8 assay", "assay_type": "toxicity, cell-based, Canis lupus familiaris", "settings": "dog"}, "[26]": {"tested_on": "Influenza A virus", "test": "Antiviral activity against influenza A H5N1 infected in MDCK cells assessed as viral growth inhibition measured for 12 to 72 hrs", "assay_type": "functional, organism-based"}, "[27]": {"tested_on": "Influenza A virus", "test": "Antiviral activity against influenza A virus […], A/WSN/33", "assay_type": "functional, organism-based"}, "[28]": {"tested_on": "Influenza A virus", "test": "Antiviral activity against influenza A virus H1N1, A/PR/8/34", "assay_type": "functional, organism-based"}, "[29]": {"tested_on": "Influenza A virus", "test": "Antiviral activity against influenza A virus H1N1, A/California/7/2009", "assay_type": "functional, organism-based"}, "[30]": {"test": "Cytotoxicity against MDCK cells assessed as reduction in cell viability", "assay_type": "toxicity, cell-based, Canis lupus familiaris", "settings": "dog"}, "[31]": {"tested_on": "Influenza A virus", "test": "Antiviral activity against influenza A virus A/WSN/1933 (H1N1) infected in HEK293T cells assessed as reduction in cytopathic effect incubated for 24 hrs", "assay_type": "functional, organism-based", "settings": "HEK-293T"}, "[32]": {"tested_on": "Influenza B virus", "test": "Antiviral activity against influenza B virus infected in HEK293T cells assessed as reduction in cytopathic effect incubated for 24 hrs", "assay_type": "functional, organism-based", "settings": "HEK-293T"}, "[33]": {"test": "Cytotoxicity against MDCK cells assessed as reduction in cell viability measured after 48 hrs by CCK-8 assay", "assay_type": "toxicity, cell-based, Canis lupus familiaris", "settings": "dog"}},
  "data": [
    {"compound": "Cc1cccc(N2CCN(Cc3n[nH]c(=O)n3Cc3cccc(F)c3)CC2)c1C", "values": [
      {"measurement": "EC50", "setting": "[1]", "result": 0.17, "unit": "µM"},
      {"measurement": "CC50 at 72 h", "setting": "[2]", "result": "> 100", "unit": "µM"}
    ]},
    {"compound": "C=C1Cc2cc(C(F)(F)F)ccc2C(=O)NCC(C)(C)/C(=N/OC)CCCCOC1=O", "values": [
      {"measurement": "EC50", "setting": "[3]", "result": 2.3, "unit": "µM"},
      {"measurement": "CC50", "setting": "[4]", "result": 211, "unit": "µM"}
    ]},
    {"compound": "Cc1onc(-c2ccccc2Cl)c1C(=O)N1CCN(c2ccc([N+](=O)[O-])cc2Cl)CC1", "values": [
      {"measurement": "IC50", "setting": "[5]", "result": 0.1, "unit": "µM"},
      {"measurement": "EC50", "setting": "[6]", "result": 1.2, "unit": "µM"},
      {"measurement": "EC50", "setting": "[7]", "result": 1.2, "unit": "µM"},
      {"measurement": "EC50", "setting": "[8]", "result": 0.7, "unit": "µM"},
      {"measurement": "EC50", "setting": "[9]", "result": 0.32, "unit": "µM"},
      {"measurement": "CC50 at 48 h", "setting": "[10]", "result": "> 100", "unit": "µM"},
      {"measurement": "CC50 at 48 h", "setting": "[11]", "result": "> 100", "unit": "µM"},
      {"measurement": "EC50", "setting": "[12]", "result": 4.2, "unit": "µM"},
      {"measurement": "EC50", "setting": "[13]", "result": 1.2, "unit": "µM"},
      {"measurement": "EC50", "setting": "[14]", "result": 0.7, "unit": "µM"},
      {"measurement": "EC50", "setting": "[15]", "result": 0.32, "unit": "µM"}
    ]},
    {"compound": "COc1ccccc1-c1cc2c(Nc3ccccc3)nccc2n1C", "values": [
      {"measurement": "EC50", "setting": "[16]", "result": 1.17, "unit": "µM"},
      {"measurement": "EC50", "setting": "[17]", "result": 8.29, "unit": "µM"},
      {"measurement": "EC50", "setting": "[18]", "result": 12.9, "unit": "µM"},
      {"measurement": "CC50 at 72 h", "setting": "[19]", "result": 27.2, "unit": "µM"}
    ]},
    {"compound": "CCCC(=O)c1c(O)c(CC2=C(O)C(C)(C)C(O)=C(C(C)=O)C2=O)c(O)c(Cc2c(O)c(CC3=C(O)C(C)(C)C(O)=C(C(C)=O)C3=O)c(O)c(C(=O)CCC)c2O)c1O", "values": [
      {"measurement": "EC50", "setting": "[20]", "result": 16.6, "unit": "µM"},
      {"measurement": "CC50 at 72 h", "setting": "[21]", "result": "> 400", "unit": "µM"}
    ]},
    {"compound": "Cc1cc(C(=O)NC(C)C23CC4CC(CC(C4)C2)C3)c(C)o1", "note": "(centres undefined)", "values": [
      {"measurement": "EC50", "setting": "[22]", "result": 0.069, "unit": "µM"},
      {"measurement": "EC50", "setting": "[23]", "result": 0.08, "unit": "µM"},
      {"measurement": "CC50 at 72 h", "setting": "[24]", "result": 73, "unit": "µM"}
    ]},
    {"compound": "O[C@H]1[C@H]2c3cc4c(cc3CN3CCC(=C[C@@H]1O)[C@H]23)OCO4", "note": "[LYCORINE]", "values": [
      {"measurement": "CC50 at 72 h", "setting": "[25]", "result": 20.9, "unit": "µM"},
      {"measurement": "EC50", "setting": "[26]", "result": "< 0.46", "unit": "µM"}
    ]},
    {"compound": "C=C1Cc2cc(C(F)(F)F)ccc2C(=O)NCC(C)/C(=N/OC)CCCCOC1=O", "note": "(centres undefined)", "values": [
      {"measurement": "EC50", "setting": "[3]", "result": 0.57, "unit": "µM"},
      {"measurement": "CC50", "setting": "[4]", "result": "> 100", "unit": "µM"}
    ]},
    {"compound": "NC(=O)c1nc(F)cnc1O", "note": "[FAVIPIRAVIR]", "values": [
      {"measurement": "EC50", "setting": "[27]", "result": 37.4, "unit": "µM"},
      {"measurement": "EC50", "setting": "[28]", "result": 37.4, "unit": "µM"},
      {"measurement": "EC50", "setting": "[29]", "result": 37.4, "unit": "µM"},
      {"measurement": "CC50", "setting": "[30]", "result": "> 1000", "unit": "µM"}
    ]},
    {"compound": "C/C(=C\\CC/C(C)=C/C[C@]1(O)C(=O)c2c(O)cc(C)c3c(O)c(C)c(O)c(c23)C1=O)CC/C=C(\\CO)CC[C@@H](O)C(C)(C)O", "values": [
      {"measurement": "EC50", "setting": "[31]", "result": 0.28, "unit": "µM"},
      {"measurement": "EC50", "setting": "[32]", "result": 1.22, "unit": "µM"},
      {"measurement": "CC50 at 48 h", "setting": "[33]", "result": "> 100", "unit": "µM"}
    ]},
    {"compound": "CC(=O)c1cc(O)ccc1O[C@@H]1O[C@H](CO)[C@@H](O)[C@H](OC(=O)c2cc(O)c(O)c(O)c2)[C@H]1OC(=O)c1cc(O)c(O)c(O)c1", "values": [
      {"measurement": "EC50", "setting": "[27]", "result": 24.6, "unit": "µM"},
      {"measurement": "EC50", "setting": "[28]", "result": 30.7, "unit": "µM"},
      {"measurement": "EC50", "setting": "[29]", "result": 30.7, "unit": "µM"},
      {"measurement": "CC50", "setting": "[30]", "result": "> 1000", "unit": "µM"}
    ]}
  ]
}
